What was measured:
PDK1 = biological target: T1, PDK1 (Homo sapiens, UniProt O15530); assay: Test for the inhibition of PDK1 (flashplate, 33P-ATP); format: biochemical; settings: His6-PDK1 3.4 nM, 4 μM ATP, 30° C., 60 min
T1 construct: His6 (N)
Protocol: The experimental batches are carried out in a flashplate system with 384 wells/microtitration plate.
In each case, the PDK1 sample His6-PDK1(SEQ ID NO: 2)(1-50)(3.4 nM), the PDK1 substrate biotin-bA-bA-[…] (SEQ ID NO: 3) (400 nM), 4 μM ATP (with 0.2 μCi of ^33P-ATP/well) and the test substance in 50 μl of conventional experimental solution per well are incubated at 30° C. for 60 min. The test substances are employed in corresponding concentrations (if desired in a dilution series). The control is carried out without test substance. The reaction is stopped using standard methods and washed. The activity of the kinase is measured via the incorporated radioactivity in top count. In order to determine the non-specific kinase reaction (blank value), the experimental batches are carried out in the presence of 100 nM staurosporin.
The radioactivity (decompositions per minute) of the blank value (no use of test substance in the presence of staurosporin) is subtracted from all other radioactivity values. The controls (kinase activity without test substance) are set equal to 100 percent and all other radioactivity values (after subtracting the blank value) are expressed set in relation thereto (for example in % of the control).
IC50 values (50% inhibition) are determined with the aid of statistics programmes, such as, for example, RS1.

[1] = test system: PDK1 kinase activity in PC3 cells (phospho-T308-PKB); assay: Cellular testing of PDK1 kinase inhibitors in PC3 cells (Luminex, phospho-T308-PKB); format: cell-based; settings: Homo sapiens, PC-3, 0.5 h, 30 min with test substance, serum-free, phospho-T308-PKB by Luminex, read-out: IC50 [PC3 P-PKB Thr308]
Protocol: Method for the Cellular Testing of PDK1 Kinase Inhibitors in PC3 Cells.
The cellular assay for the determination of the PDK1 kinase activity is carried out as a Luminex assay in the 96-well format. PC3 cells are sown at 20,000 cells per well in 100 μl of medium (45% of […]/45% of Ham's F12/10% of FCS) and incubated on the following day for 30 min with a serial dilution of the test substance (7 concentrations) under serum-free conditions. The cells are subsequently lysed using 90 μl of lysis buffer (20 mM tris/HCl pH 8.0, 150 mM NaCl, 1% of NP40, 10% of glycerol, 1% of phosphatase inhibitor I, 1% of phosphatase inhibitor II, 0.1% of protease inhibitor cocktail III, 0.01% of benzonase) per well, and the lysates are separated off from insoluble cell constituents by means of centrifugation through a 96-well filter plate (0.65 μm). The lysates are incubated overnight at 4° C. with shaking with Luminex beads to which an anti-total PKB antibody is coupled. The detection is carried out on the following day by addition of a phospho-T308-PKB antibody and a species-specific […] secondary antibody. The detection of phospho-T308-PKB is carried out by measurement in a Luminex100 instrument by determination of 100 events per cavity in a measurement time of 60 sec. As pharmacological blank, the signals obtained from cells which have been treated with 10 μM staurosporin are subtracted from all other batches. The control value used for maximum phosphorylation of PKB on T308 are the signals from cells which have only been treated with the solvent (0.3% of DMSO). The values of the batches treated with test substance are calculated therefrom as percentage of control, and IC50 values are determined by means of RS1.

T1 sequence (O15530 51-556): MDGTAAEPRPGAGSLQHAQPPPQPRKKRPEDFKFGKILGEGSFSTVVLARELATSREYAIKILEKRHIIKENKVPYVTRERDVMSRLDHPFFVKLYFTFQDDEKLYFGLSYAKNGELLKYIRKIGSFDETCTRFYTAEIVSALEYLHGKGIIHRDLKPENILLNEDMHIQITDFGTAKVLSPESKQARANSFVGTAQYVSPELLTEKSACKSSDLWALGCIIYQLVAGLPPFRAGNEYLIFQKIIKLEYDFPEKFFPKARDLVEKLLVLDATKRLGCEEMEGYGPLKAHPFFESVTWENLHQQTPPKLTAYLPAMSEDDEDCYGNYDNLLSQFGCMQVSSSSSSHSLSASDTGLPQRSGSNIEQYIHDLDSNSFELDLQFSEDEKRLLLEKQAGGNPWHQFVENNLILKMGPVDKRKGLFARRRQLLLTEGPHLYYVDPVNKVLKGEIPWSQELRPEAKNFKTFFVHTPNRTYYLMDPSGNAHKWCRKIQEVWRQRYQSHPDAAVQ

Row | SMILES | IC50 (PDK1) [nM] | IC50 [1] [nM]
1 | CCCCc1cc(-c2c[nH]c3ncc(-c4cnn(C5CCNCC5)c4)cc23)nc(N)n1 [Compound A87, 4-Butyl-6-[5-(1-piperidin-4-yl-1H-pyrazol-4-yl)-1H-pyrrolo[2,3-b]pyridin-3-yl]-pyrimidin-2-ylamine] | 10 to 1000 | 1000 to 10000
2 | CCCCc1cc(-c2c[nH]c3ncc(-c4cnn(CCO)c4)cc23)nc(N)n1 [Compound A88, 2-{4-[3-(2-Amino-6-butylpyrimidin-4-yl)-1H-pyrrolo[2,3-b]pyridin-5-yl]pyrazol-1-yl}ethanol] | 10 to 1000 | 1000 to 10000
3 | CCCCc1cc(-c2c[nH]c3ncc(-c4cnn(C5CCN(C)CC5)c4)cc23)nc(N)n1 [Compound A89, 4-Butyl-6-{5-[1-(1-methylpiperidin-4-yl)-1H-pyrazol-4-yl]-1H-pyrrolo[2,3-b]-pyridin-3-yl}pyrimidin-2-ylamine] | 10 to 1000 | 1000 to 10000
4 | CC(=O)NCCCc1cc(-c2c[nH]c3ncc(-c4cnn(C(C)C)c4)cc23)nc(N)n1 [Compound A97, N-(3-{2-Amino-6-[5-(1-isopropyl-1H-pyrazol-4-yl)-1H-pyrrolo[2,3-b]pyridin-3-yl]pyrimidin-4-yl}propyl)acetamide] | 10 to 1000 | 10000 to 20000
5 | CCc1cc(-c2c[nH]c3ncc(-c4cnn(Cc5cccc(F)c5)c4)cc23)nc(N)n1 [Compound A98, 4-Ethyl-6-{5-[1-(3-fluorobenzyl)-1H-pyrazol-4-yl]-1H-pyrrolo[2,3-b]pyridin-3-yl}pyrimidin-2-ylamine] | 10 to 1000 | 1000 to 10000
6 | CC(C)n1cc(-c2cnc3[nH]cc(-c4cc(CCCn5ccnc5)nc(N)n4)c3c2)cn1 [Compound A108, 4-(3-Imidazol-1-ylpropyl)-6-[5-(1-isopropyl-1H-pyrazol-4-yl)-1H-pyrrolo-[2,3-b]pyridin-3-yl]pyrimidin-2-ylamine] | 10 to 1000 | 10000 to 20000
7 | CC(C)n1cc(-c2cnc3[nH]cc(-c4cc(CCn5ccnc5)nc(N)n4)c3c2)cn1 [Compound A110, 4-(2-Imidazol-1-ylethyl)-6-[5-(1-isopropyl-1H-pyrazol-4-yl)-1H-pyrrolo[2,3-b]-pyridin-3-yl]pyrimidin-2-ylamine] | 10 to 1000 | 10000 to 20000
8 | CC(C)n1cc(-c2cnc3[nH]cc(-c4cc(C5CCCCC5)nc(N)n4)c3c2)cn1 [Compound A111, 4-Cyclohexyl-6-[5-(1-isopropyl-1H-pyrazol-4-yl)-1H-pyrrolo[2,3-b]pyridin-3-yl]pyrimidin-2-ylamine] | 10 to 1000 | 1000 to 10000

Second part, the compound after the results:

Row | IC50 (PDK1) [nM] | IC50 [1] [nM] | SMILES
9 | 10 to 1000 | 10000 to 20000 | CCc1cc(-c2c[nH]c3ncc(-c4cnn(Cc5ccc(F)c(F)c5)c4)cc23)nc(N)n1 [Compound A99, 4-{5-[1-(3,4-Difluorobenzyl)-1H-pyrazol-4-yl]-1H-pyrrolo[2,3-b]pyridin-3-yl}-6-ethylpyrimidin-2-ylamine]
10 | 10 to 1000 | 10000 to 20000 | CC(C)n1cc(-c2cnc3[nH]cc(-c4cc(CCC(=O)N(C)C)nc(N)n4)c3c2)cn1 [Compound A101, 3-{2-Amino-6-[5-(1-isopropyl-1H-pyrazol-4-yl)-1H-pyrrolo[2,3-b]pyridin-3-yl]-pyrimidin-4-yl}-N,N-dimethylpropionamide]
11 | 10 to 1000 | 10000 to 20000 | CCC(O)c1cc(-c2c[nH]c3ncc(-c4cnn(C(C)C)c4)cc23)nc(N)n1 (centres unmarked) [Compound A103, 1-{2-Amino-6-[5-(1-isopropyl-1H-pyrazol-4-yl)-1H-pyrrolo[2,3-b]pyridin-3-yl]-pyrimidin-4-yl}propan-1-ol]
12 | 10 to 1000 | 1000 to 10000 | CC(C)CC(O)c1cc(-c2c[nH]c3ncc(-c4cnn(C(C)C)c4)cc23)nc(N)n1 (centres unmarked) [Compound A104, 1-{2-Amino-6-[5-(1-isopropyl-1H-pyrazol-4-yl)-1H-pyrrolo[2,3-b]pyridin-3-yl]-pyrimidin-4-yl}-3-methylbutan-1-ol]
13 | 10 to 1000 | 10000 to 20000 | Nc1nc(-c2c[nH]c3ncccc23)cc(C2CCCCC2)n1 [Compound A105, 4-Cyclohexyl-6-(1H-pyrrolo[2,3-b]pyridin-3-yl)pyrimidin-2-ylamine]

From patent publication US8420820B2, “Pyrrolopyridinylpyrimidin-2-ylamine derivatives” (Merck Patent GmbH, priority 2008, dated 2013)
